Laboratory results reported in ChEMBL document CHEMBL1201862, “PubChem BioAssay data set” (2004).
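In this assay, cells in 96-well plates receive the compound at five concentrations for 48 hours. Endpoints are linearly interpolated between the surrounding concentrations. GI50 is the concentration that inhibits growth by half.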 The source made the active and inactive calls. No stated cut-off is given here; in the data, active = GI50 up to about 1.1 µM and inactive = higher.

How the values were obtained:
Experiment in all cases: NCI anticancer screen, dose series, 48 h
786-0 = tested on: 786-0
A498 = tested on: A498
A549 = tested on: A549
ACHN = tested on: ACHN
CAKI-1 = tested on: CAKI-1
DLD-1 = tested on: DLD-1
DMS-114 = tested on: DMS-114
DMS-273 = tested on: DMS-273
EKVX = tested on: EKVX
HCC 2998 = tested on: HCC 2998
HCT-116 = tested on: HCT-116
HCT-15 = tested on: HCT-15
HL-60 = tested on: HL-60
HOP-62 = tested on: HOP-62
HOP-92 = tested on: HOP-92
HT-29 = tested on: HT-29
IGROV-1 = tested on: IGROV-1
KM-20L2 = tested on: KM-20L2
LOX IMVI = tested on: LOX IMVI
LXFL 529 = tested on: LXFL 529
M14 = tested on: M14
M19-MEL = tested on: M19-MEL
MOLT-4 = tested on: MOLT-4
Malme-3M = tested on: Malme-3M
NCI-H226 = tested on: NCI-H226
NCI-H23 = tested on: NCI-H23
NCI-H460 = tested on: NCI-H460
NCI-H522 = tested on: NCI-H522
OVCAR-3 = tested on: OVCAR-3
OVCAR-4 = tested on: OVCAR-4
OVCAR-5 = tested on: OVCAR-5
OVCAR-8 = tested on: OVCAR-8
RPMI-8226 = tested on: RPMI-8226
RXF 393 = tested on: RXF 393
RXF 631 = tested on: RXF 631
SF-268 = tested on: SF-268
SF-295 = tested on: SF-295
SF-539 = tested on: SF-539
SK-MEL-28 = tested on: SK-MEL-28
SK-MEL-2 = tested on: SK-MEL-2
SK-MEL-5 = tested on: SK-MEL-5
SK-OV-3 = tested on: SK-OV-3
SN12C = tested on: SN12C
SNB-75 = tested on: SNB-75
SNB-78 = tested on: SNB-78
SR = tested on: SR
SW-620 = tested on: SW-620
TK-10 = tested on: TK-10
U-251 = tested on: U-251
UACC-257 = tested on: UACC-257
UACC-62 = tested on: UACC-62
UO-31 = tested on: UO-31
BT-549 = tested on: BT-549
CCRF-CEM = tested on: CCRF-CEM
COLO 205 = tested on: COLO 205
DU-145 = tested on: DU-145
HOP-18 = tested on: HOP-18
Hs-578T = tested on: Hs-578T
K562 = tested on: K562
KM12 = tested on: KM12
MCF7 = tested on: MCF7
MDA-MB-231 = tested on: MDA-MB-231
MDA-MB-435 = tested on: MDA-MB-435
MDA-N = tested on: MDA-N
NCI/ADR-RES = tested on: NCI/ADR-RES
PC-3 = tested on: PC-3
SNB-19 = tested on: SNB-19
T47D = tested on: T47D

Measured: GI50

CCCCCCC(=O)OC[n+]1ccc2c(C)c3[nH]c4ccccc4c3c(C)c2c1
0.348 µM: HCT-15
inactive: CAKI-1 1.58 µM | HL-60 2.23 µM | HOP-62 2.08 µM | HOP-92 3.18 µM | IGROV-1 1.47 µM | M14 1.29 µM | Malme-3M 1.61 µM | NCI-H226 1.46 µM | NCI-H522 1.56 µM | OVCAR-3 1.21 µM | OVCAR-5 1.71 µM | RXF 631 2.54 µM | SK-MEL-28 1.56 µM | SK-MEL-2 5.38 µM | SK-MEL-5 1.56 µM | SK-OV-3 1.83 µM | SNB-75 1.85 µM | TK-10 3.13 µM | UACC-257 1.79 µM | UACC-62 2.72 µM | UO-31 3.42 µM
active: 786-0 0.418 µM | A498 1.01 µM | A549 0.474 µM | ACHN 0.703 µM | DLD-1 0.4 µM | DMS-114 1.08 µM | DMS-273 0.106 µM | EKVX 0.403 µM | HCC 2998 0.826 µM | HCT-116 0.376 µM | HT-29 0.347 µM | KM-20L2 0.582 µM | LOX IMVI 0.537 µM | LXFL 529 0.785 µM | M19-MEL 1.04 µM | MOLT-4 0.118 µM | NCI-H23 0.455 µM | NCI-H460 0.0728 µM | OVCAR-4 1.06 µM | OVCAR-8 0.34 µM | RPMI-8226 0.0785 µM | RXF 393 1 µM | SF-268 0.61 µM | SF-295 0.836 µM | SF-539 0.646 µM | SN12C 0.404 µM | SNB-78 1.09 µM | SR 0.101 µM | SW-620 0.31 µM | U-251 0.552 µM

Cc1cc(O)nc(NN2C(Cl)C(=O)C2c2ccc(Cl)cc2)n1 (configuration not stated)
15.1 µM: HCT-15
inactive: 786-0 15.6 µM | A498 18.2 µM | A549 26.3 µM | ACHN 23 µM | BT-549 20.5 µM | CAKI-1 15.7 µM | CCRF-CEM 1.87 µM | COLO 205 17.2 µM | DMS-114 13.5 µM | DMS-273 11.9 µM | DU-145 23.3 µM | EKVX 16.6 µM | HCC 2998 17 µM | HCT-116 11.3 µM | HL-60 3.18 µM | HOP-18 8.55 µM | HOP-62 19.6 µM | HOP-92 12.9 µM | HT-29 18 µM | Hs-578T 30 µM | IGROV-1 3.61 µM | K562 2.88 µM | KM-20L2 20.6 µM | KM12 10.6 µM | LOX IMVI 4.15 µM | LXFL 529 5.86 µM | M14 13.4 µM | M19-MEL 17.7 µM | MCF7 12.8 µM | MDA-MB-231 26.4 µM | MDA-MB-435 23.4 µM | MDA-N 8.53 µM | MOLT-4 6.65 µM | Malme-3M 16.8 µM | NCI-H226 11.9 µM | NCI-H23 15.8 µM | NCI-H460 16.4 µM | NCI/ADR-RES 20.7 µM | OVCAR-3 13.6 µM | OVCAR-4 22.9 µM | OVCAR-5 40 µM | OVCAR-8 19.1 µM | PC-3 32.7 µM | RPMI-8226 8.55 µM | RXF 393 17.4 µM | SF-268 19.8 µM | SF-295 8.61 µM | SF-539 16.3 µM | SK-MEL-28 18.2 µM | SK-MEL-2 19.3 µM | SK-MEL-5 12.8 µM | SK-OV-3 41.8 µM | SN12C 16.7 µM | SNB-19 19.4 µM | SNB-75 17.4 µM | SNB-78 17.9 µM | SR 1.27 µM | SW-620 22.5 µM | T47D 16.6 µM | TK-10 19.8 µM | U-251 20.5 µM | UACC-257 21.6 µM | UACC-62 16.7 µM | UO-31 25.6 µM
